Experimental data from ChEMBL document CHEMBL1157374, “Lack of an effect of antibiotic treatment on prolonged detection of chlamydial DNA in murine genital tract infection” (2007).
Activity calls are given as the source filed them. The calls are words filed in the database; no cut-off is given here.

How the values were obtained:
Chlamydia trachomatis [1] = assay: Effect on chlamydial plasmid DNA of Chlamydia trachomatis Nigg infected in BALB/c mouse genital tract infection model at 3 mg/ml, ip administered on days 42 to 56 days postinfection by nested PCR; format: functional, organism-based
Chlamydia trachomatis [2] = assay: Antimicrobial activity against Chlamydia trachomatis Nigg infected in BALB/c mouse genital tract infection model assessed as recovery of inclusion forming units from cervicovaginal swabs at 3 mg/ml, ip administered on days 42 to 56 days postinfection; format: functional, organism-based
Chlamydia trachomatis [3] = assay: Antimicrobial activity against Chlamydia trachomatis Nigg infected in BALB/c mouse genital tract infection model assessed as severe oviduct dilation at 3 mg/ml, ip administered on days 42 to 56 days postinfection; format: functional
Chlamydia trachomatis [4] = assay: Antimicrobial activity against Chlamydia trachomatis Nigg infected in BALB/c mouse genital tract infection model assessed as severe oviduct dilation at 3 mg/ml, ip administered on days 10 to 24 days postinfection; format: functional
Chlamydia trachomatis [5] = assay: Antimicrobial activity against Chlamydia trachomatis Nigg infected in BALB/c mouse genital tract infection model assessed as recovery of inclusion forming units from cervicovaginal swabs at 3 mg/ml, ip administered on days 10 to 24 days postinfection; format: functional, organism-based
Chlamydia trachomatis [6] = assay: Effect on chlamydial plasmid DNA of Chlamydia trachomatis Nigg infected in BALB/c mouse genital tract infection model at 3 mg/ml, ip administered on days 10 to 24 days postinfection by nested PCR; format: functional, organism-based

With `C[C@H]1c2cccc(O)c2C(=O)C2=C(O)[C@]3(O)C(=O)C(C(N)=O)=C(O)[C@@H](N(C)C)[C@@H]3[C@@H](O)[C@@H]21.O` [DOXYCYCLINE] the Activity (Chlamydia trachomatis [1]) was “inactive”, the Activity (Chlamydia trachomatis [2]) was “Active” and the Activity (Chlamydia trachomatis [3]) was 80%. The Activity (Chlamydia trachomatis [4]) was 30%, the Activity (Chlamydia trachomatis [5]) was “Active” and the Activity (Chlamydia trachomatis [6]) was “inactive”.
